# Assay results: US9636336B2, “Aminoester derivatives” (CHIESI FARMACEUTICI S.p.A., priority 2015, dated 2017)
# Where two headings read alike, the source gives them in different places.
# Columns and labels:
# [1] = target: Human M3 receptor membranes (Homo sapiens (Human), UniProt P20309); test: M3 Receptor radioligand binding assay
# Procedure: M3 Receptor Radioligand Binding Assay:
# The assay is carried out in 96-well polypropylene plates in a volume of 250 μl. […] The final assay concentration of DMSO is 0.5% (v/v). The plates are sealed and incubated for 2 h at room temperature on an orbital shaker (slow speed). Membranes are harvested onto 96-well unifilter GF/C filter plates pre-treated with 0.5% polyethyleneimine (v/v), using a filter manifold, washed four times with 200 μl of assay buffer. The plates are dried before addition of 50 μl of microscint-0, sealed then read in a Trilux Microbeta scintillation counter. IC50 values are determined from competition curves using a non-linear curve fitting program. Ki values are calculated from IC50 values by the Cheng and Prusoff equation.
# Human recombinant PDE4B2 = Human recombinant PDE4B2 (Homo sapiens (Human), UniProt Q07343); test: PDE4B2 HTRF assay; assay type: biochemical
# Sequence of Human recombinant PDE4B2 (Q07343 other isoform, or with tags, fused parts or gaps): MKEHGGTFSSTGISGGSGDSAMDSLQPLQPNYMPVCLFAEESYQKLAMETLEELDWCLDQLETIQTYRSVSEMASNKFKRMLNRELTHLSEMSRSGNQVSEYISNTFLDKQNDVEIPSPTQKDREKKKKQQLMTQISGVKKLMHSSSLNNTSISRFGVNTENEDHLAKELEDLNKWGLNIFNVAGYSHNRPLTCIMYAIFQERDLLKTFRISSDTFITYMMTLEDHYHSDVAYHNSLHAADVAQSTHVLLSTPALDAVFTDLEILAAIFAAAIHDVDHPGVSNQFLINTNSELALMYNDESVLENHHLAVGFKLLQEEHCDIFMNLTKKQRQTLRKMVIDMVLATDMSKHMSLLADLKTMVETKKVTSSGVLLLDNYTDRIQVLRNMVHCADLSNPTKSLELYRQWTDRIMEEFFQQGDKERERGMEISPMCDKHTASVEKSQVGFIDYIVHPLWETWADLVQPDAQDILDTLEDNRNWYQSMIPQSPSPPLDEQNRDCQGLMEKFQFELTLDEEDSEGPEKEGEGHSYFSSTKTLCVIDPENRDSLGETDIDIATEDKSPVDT
# Procedure: PDE4B2 activity is detected using the LANCE Ultra cAMP homogeneous time resolved fluorescence resonance energy transfer (TR-FRET) assay from Perkin Elmer. The assay is based on the competition between the europium (Eu) chelate-labeled cAMP tracer and sample cAMP for binding sites on cAMP-specific monoclonal antibodies (mAb) labelled with the ULight™ dye. The assay is carried out in 384-well low volume plates in a volume of 10 μl. Human recombinant PDE4B2 (80 pM) is incubated for 2 h with 3 nM cAMP in buffer containing 1×HBSS, 5 mM HEPES, 3 mM MgCl2, 0.1% BSA, pH 7.4 with or without test compounds. The enzymatic reactions are efficiently stopped by the addition of 500 μM IBMX present in the combined Stop/Detection buffer containing europium (Eu) chelate-labeled cAMP tracer and cAMP-specific monoclonal antibodies (mAb) labelled with the ULight™ dye. […] IC50 values are determined from competition curves using a non-linear curve fitting program.
# [2] = M3 Receptor radioligand binding assay, read-out: M3 IC50 activity
# [3] = PDE4B2 HTRF assay, read-out: PDE4B2 IC50 activity
# Sequence of Human M3 receptor membranes (P20309 whole entry): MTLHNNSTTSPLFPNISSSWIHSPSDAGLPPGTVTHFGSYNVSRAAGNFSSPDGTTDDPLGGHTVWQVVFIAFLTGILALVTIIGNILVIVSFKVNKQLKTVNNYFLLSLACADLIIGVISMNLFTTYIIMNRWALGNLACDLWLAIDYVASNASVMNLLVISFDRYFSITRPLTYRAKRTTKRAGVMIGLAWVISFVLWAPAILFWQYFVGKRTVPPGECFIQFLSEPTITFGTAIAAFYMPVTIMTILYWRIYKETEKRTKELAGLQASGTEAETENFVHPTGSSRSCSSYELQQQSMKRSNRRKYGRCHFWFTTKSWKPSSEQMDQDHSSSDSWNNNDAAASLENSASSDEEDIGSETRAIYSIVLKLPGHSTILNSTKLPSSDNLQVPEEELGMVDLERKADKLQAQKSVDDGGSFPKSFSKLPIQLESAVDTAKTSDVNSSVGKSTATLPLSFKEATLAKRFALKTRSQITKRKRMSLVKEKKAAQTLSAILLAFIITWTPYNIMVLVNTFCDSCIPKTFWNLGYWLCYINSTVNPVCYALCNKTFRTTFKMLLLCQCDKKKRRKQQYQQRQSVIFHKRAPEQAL
Structure (SMILES),IC50 [1] [nM],IC50 (Human recombinant PDE4B2) [nM],"IC50 [1, 2] [nM]",IC50 (Human recombinant PDE4B2; [3]) [nM]
"COc1ccc([C@H](Cc2c(Cl)c[n+]([O-])cc2Cl)OC(=O)c2ccc(CNC(C(=O)OCC3C[C@H]4CC[C@@H](C3)N4C)c3ccccc3)s2)cc1OC (stereo partly drawn) [Example 114, [(1S)-2-(3,5-dichloro-1-oxido-pyridin-1-ium-4-yl)-1-(3,4-dimethoxyphenyl)ethyl] 5-[[[2-[[(1R,5S)-8-methyl-8-azabicyclo[3.2.1]octan-3-yl]methoxy]-2-oxo-1-phenyl-ethyl]amino]methyl]thiophene-2-carboxylate]",10 to 100,1 to 10,–,–
"COc1ccc([C@H](Cc2c(Cl)c[n+]([O-])cc2Cl)OC(=O)c2ccc(CNC(C(=O)OCC3CCCCN3C)c3ccccc3)s2)cc1OC (stereo partly drawn) [Example 31, [(1S)-2-(3,5-dichloro-1-oxido-pyridin-1-ium-4-yl)-1-(3,4-dimethoxyphenyl)ethyl] 5-[[[2-[(1-methyl-2-piperidyl)methoxy]-2-oxo-1-phenyl-ethyl]amino]methyl]thiophene-2-carboxylate]",–,–,10 to 100,1 to 10
"COc1ccc([C@H](Cc2c(Cl)c[n+]([O-])cc2Cl)OC(=O)c2ccc(CNC(C(=O)OC[C@@H]3CCCN(C)C3)c3ccccc3)s2)cc1OC (stereo partly drawn) [Example 14, [(1S)-2-(3,5-dichloro-1-oxido-pyridin-1-ium-4-yl)-1-(3,4-dimethoxyphenyl)ethyl]5-[[[2-[[(3R)-1-methyl-3-piperidyl]methoxy]-2-oxo-1-phenyl-ethyl]amino]methyl]thiophene-2-carboxylate]",–,–,1 to 10,1 to 10
"COc1ccc([C@H](Cc2c(Cl)c[n+]([O-])cc2Cl)OC(=O)c2ccc(CNC(CO)(C(=O)OCC34CCN(CC3)CC4)c3ccccc3)s2)cc1OC (stereo partly drawn) [Example 117, [(1S)-2-(3,5-dichloro-1-oxido-pyridin-1-ium-4-yl)-1-(3,4-dimethoxyphenyl)ethyl]5-[[[1-(hydroxymethyl)-2-oxo-1-phenyl-2-(quinuclidin-4-ylmethoxy)ethyl]amino]methyl]thiophene-2-carboxylate]",–,–,< 1,1 to 10
"COc1ccc([C@H](Cc2c(Cl)c[n+]([O-])cc2Cl)OC(=O)c2ccc(CNC(C(=O)OC[C@H]3CN(C)CCN3C)c3ccccc3)s2)cc1OC (stereo partly drawn) [Example 29, [(1S)-2-(3,5-dichloro-1-oxido-pyridin-1-ium-4-yl)-1-(3,4-dimethoxyphenyl)ethyl] 5-[[[2-[[(2R)-1,4-dimethylpiperazin-2-yl]methoxy]-2-oxo-1-phenyl-ethyl]amino]methyl]thiophene-2-carboxylate]",–,–,10 to 100,1 to 10
"COc1ccc([C@H](Cc2c(Cl)c[n+]([O-])cc2Cl)OC(=O)c2ccc(CNC(C(=O)OC[C@H]3CCN(C)C3)c3ccccc3)s2)cc1OC (stereo partly drawn) [Example 18, [(1S)-2-(3,5-dichloro-1-oxido-pyridin-1-ium-4-yl)-1-(3,4-dimethoxyphenyl)ethyl] 5-[[[2-[[(3S)-1-methylpyrrolidin-3-yl]methoxy]-2-oxo-1-phenyl-ethyl]amino]methyl]thiophene-2-carboxylate]",–,–,1 to 10,1 to 10
"COc1ccc(C(Cc2c(Cl)c[n+]([O-])cc2Cl)OC(=O)c2ccc(CNC(C(=O)OCC3CCN(C)CC3)c3cccc(O)c3)s2)cc1OCC1CC1 (stereo not drawn) [Example 47, [1-[3-(cyclopropylmethoxy)-4-methoxy-phenyl]-2-(3,5-dichloro-1-oxido-pyridin-1-ium-4-yl)ethyl]5-[[[1-(3-hydroxyphenyl)-2-[(1-methyl-4-piperidyl)methoxy]-2-oxo-ethyl]amino]methyl]thiophene-2-carboxylate]",–,–,1 to 10,1 to 10
"CN1CCC(COC(=O)C(NCc2ccc(C(=O)O[C@@H](Cc3c(Cl)c[n+]([O-])cc3Cl)c3ccc(OC(F)F)c(OCC4CC4)c3)s2)c2cccc(O)c2)CC1 (mixture of isomers) [Example 46, [(1S)-1-[3-(cyclopropylmethoxy)-4-(difluoromethoxy)phenyl]-2-(3,5-dichloro-1-oxido-pyridin-1-ium-4-yl)ethyl]5-[[[1-(3-hydroxyphenyl)-2-[(1-methyl-4-piperidyl)methoxy]-2-oxo-ethyl]amino]methyl]thiophene-2-carboxylate]",–,–,1 to 10,1 to 10
"COc1ccc([C@H](Cc2c(Cl)c[n+]([O-])cc2Cl)OC(=O)c2ccc(CNC(C(=O)OC[C@@H]3CCN(C)C3)c3ccccc3)s2)cc1OC (stereo partly drawn) [Example 17, [(1S)-2-(3,5-dichloro-1-oxido-pyridin-1-ium-4-yl)-1-(3,4-dimethoxyphenyl)ethyl] 5-[[[2-[[(3R)-1-methylpyrrolidin-3-yl]methoxy]-2-oxo-1-phenyl-ethyl]amino]methyl]thiophene-2-carboxylate]",–,–,1 to 10,1 to 10
"COc1ccc(C(Cc2c(Cl)c[n+]([O-])cc2Cl)OC(=O)c2ccc(CNC(C(=O)OCC3CCN(C)CC3)c3ccccc3)s2)cc1OC1CCCC1 (stereo not drawn) [Example 5, [1-[3-(cyclopentoxy)-4-methoxy-phenyl]-2-(3,5-dichloro-1-oxido-pyridin-1-ium-4-yl)ethyl] 5-[[[2-[(1-methyl-4-piperidyl)methoxy]-2-oxo-1-phenyl-ethyl]amino]methyl]thiophene-2-carboxylate]",–,–,1 to 10,1 to 10
"COc1ccc([C@H](Cc2c(Cl)c[n+]([O-])cc2Cl)OC(=O)c2ccc(CNC(CO)(C(=O)OCC3CCN(C)CC3)c3cccs3)s2)cc1OC (mixture of isomers) [Example 37, [(1S)-2-(3,5-dichloro-1-oxido-pyridin-1-ium-4-yl)-1-(3,4-dimethoxyphenyl)ethyl]5-[[[1-(hydroxymethyl)-2-[(1-methyl-4-piperidyl)methoxy]-2-oxo-1-(2-thienyl)ethyl]amino]methyl]thiophene-2-carboxylate]",–,–,1 to 10,< 1
"COc1ccc([C@H](Cc2c(Cl)c[n+]([O-])cc2Cl)OC(=O)c2ccc(CNCC(O)(C(=O)OCC3CCN(C)CC3)c3cccs3)s2)cc1OC (stereo partly drawn) [Example 1, [(1S)-2-(3,5-dichloro-1-oxido-pyridin-1-ium-4-yl)-1-(3,4-dimethoxyphenyl)ethyl]5-[[[2-hydroxy-3-[(1-methyl-4-piperidyl)methoxy]-3-oxo-2-(2-thienyl)propyl]amino]methyl]-thiophene-2-carboxylate]",10 to 100,1 to 10,–,–
